# pIC50: −log10 of the molar value.
# Tests used:
# [1] = biological target: wild-type PRC2 enzyme (WT EZH2) (Homo sapiens (Human), UniProt Q15910); test: PRC2 enzyme assay on peptide substrate, wild-type EZH2; format: biochemical; settings: wild-type PRC2, H3K27me0 peptide substrate
# Description: (§1) Protocol for Wild-Type and Mutant PRC2 Enzyme Assays
# (§2) Peptides representative of human histone H3 residues 21-44 containing either an unmodified lysine 27 (H3K27me0) or dimethylated lysine 27 (H3K27me2) are synthesized with a C-terminal G(K-biotin) linker-affinity tag motif and a C-terminal amide cap by 21st Century Biochemicals. […] The sequences are listed below.
# (§3) Human PRC2 enzymes are purified as 4-component enzyme complexes co-expressed in Spodoptera frugiperda (sf9) cells using a baculovirus expression system. […] The EED subunit contains an N-terminal FLAG tag that is used to purify the entire 4-component complex from sf9 cell lysates.
# (§4) The assays are all performed in a buffer consisting of 20 mM bicine (pH=7.6), 0.5 mM DTT, 0.005% BSG and 0.002% Tween20, prepared on the day of use. Compounds in 100% DMSO (1 μL) are spotted into polypropylene 384-well V-bottom plates (Greiner) using a Platemate 2×3 outfitted with a 384-channel pipet head (Thermo). DMSO (1 μL) is added to columns 11, 12, 23, 24, rows A-H for the maximum signal control, and SAH, a known product and inhibitor of PRC2 (1 μL) is added to columns 11, 12, 23, 24, rows I-P for the minimum signal control. A cocktail (4 μL) containing the wild-type PRC2 enzyme and H3K27me0 peptide or any of the Y641 mutant enzymes and H3K27me2 peptide is added by Multidrop Combi (Thermo). The compounds are allowed to incubate with PRC2 for 30 min at 25° C., then a cocktail (10 μL) containing a mixture of non-radioactive and ^3H-SAM is added to initiate the reaction (final volume=[…]). In all cases, the final concentrations are as follows: wild-type or mutant PRC2 enzyme was 4 nM, SAH in the minimum signal control wells was 1 mM and the DMSO concentration was 1%. The assays are stopped by the addition of non-radioactive SAM (10 μL) to a final concentration of 600 μM, which dilutes the ^3H-SAM to a level where its incorporation into the peptide substrate is no longer detectable. 5 μL of the reaction in the 384-well polypropylene plate is then transferred to a 384-well Flashplate and the biotinylated peptides are allowed to bind to the streptavidin surface for at least 1 h before being washed three times with 0.1% Tween20 in a Biotek ELx405 plate washer. The plates are then read in a PerkinElmer TopCount platereader to measure the quantity of ^3H-labeled peptide bound to the Flashplate surface, measured as disintegrations per minute (dpm) or alternatively, referred to as counts per minute (cpm).
# (§5) Where top and bottom are the normally allowed to float, but may be fixed at 100 or 0 respectively in a 3-parameter fit. The Hill Coefficient normally allowed to float but may also be fixed at 1 in a 3-parameter fit. Y is the % inhibition and X is the compound concentration.
# [2] = biological target: Y641F mutant PRC2 enzyme (EZH2 Y641F) (Homo sapiens (Human), UniProt Q15910, Y641F); test: PRC2 enzyme assay on peptide substrate, EZH2 Y641F mutant; format: biochemical; settings: EZH2 Y641F PRC2, H3K27me2 peptide substrate
# Sequence of Y641F mutant PRC2 enzyme (EZH2 Y641F) (Q15910 whole entry Y641F): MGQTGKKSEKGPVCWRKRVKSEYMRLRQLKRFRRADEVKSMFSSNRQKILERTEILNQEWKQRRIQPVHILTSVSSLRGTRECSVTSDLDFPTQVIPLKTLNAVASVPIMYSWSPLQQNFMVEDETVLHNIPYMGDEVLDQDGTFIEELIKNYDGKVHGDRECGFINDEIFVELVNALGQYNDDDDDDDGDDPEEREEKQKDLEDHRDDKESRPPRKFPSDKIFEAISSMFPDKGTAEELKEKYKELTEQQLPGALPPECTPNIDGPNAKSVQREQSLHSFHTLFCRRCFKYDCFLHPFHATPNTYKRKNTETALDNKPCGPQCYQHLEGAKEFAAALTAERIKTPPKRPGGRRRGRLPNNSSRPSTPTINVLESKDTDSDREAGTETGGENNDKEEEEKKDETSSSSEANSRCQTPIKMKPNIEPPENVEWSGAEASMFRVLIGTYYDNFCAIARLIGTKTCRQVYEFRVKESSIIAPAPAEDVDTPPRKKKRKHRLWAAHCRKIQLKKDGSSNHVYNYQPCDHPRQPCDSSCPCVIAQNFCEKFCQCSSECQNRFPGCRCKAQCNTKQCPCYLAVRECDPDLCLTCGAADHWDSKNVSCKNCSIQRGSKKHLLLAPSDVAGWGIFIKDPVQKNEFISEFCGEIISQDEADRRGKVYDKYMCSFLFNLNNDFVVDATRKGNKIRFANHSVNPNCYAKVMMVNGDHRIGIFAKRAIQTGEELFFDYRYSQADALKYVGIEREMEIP
# Sequence of Y641F mutant PRC2 enzyme (EZH2 Y641F) (O75530 whole entry partner): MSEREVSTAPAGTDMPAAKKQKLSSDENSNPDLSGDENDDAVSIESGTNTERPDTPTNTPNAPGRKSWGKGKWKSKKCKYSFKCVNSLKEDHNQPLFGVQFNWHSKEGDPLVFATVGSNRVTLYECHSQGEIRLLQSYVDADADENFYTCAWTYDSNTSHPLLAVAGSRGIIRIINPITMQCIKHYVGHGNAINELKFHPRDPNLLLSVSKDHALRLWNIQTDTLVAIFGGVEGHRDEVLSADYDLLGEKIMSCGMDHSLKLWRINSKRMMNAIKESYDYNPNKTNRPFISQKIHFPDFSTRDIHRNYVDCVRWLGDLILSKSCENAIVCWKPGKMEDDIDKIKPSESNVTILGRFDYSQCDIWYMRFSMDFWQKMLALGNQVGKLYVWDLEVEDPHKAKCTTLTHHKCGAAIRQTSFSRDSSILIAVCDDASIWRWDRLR
# Sequence of Y641F mutant PRC2 enzyme (EZH2 Y641F) (Q15022 whole entry partner): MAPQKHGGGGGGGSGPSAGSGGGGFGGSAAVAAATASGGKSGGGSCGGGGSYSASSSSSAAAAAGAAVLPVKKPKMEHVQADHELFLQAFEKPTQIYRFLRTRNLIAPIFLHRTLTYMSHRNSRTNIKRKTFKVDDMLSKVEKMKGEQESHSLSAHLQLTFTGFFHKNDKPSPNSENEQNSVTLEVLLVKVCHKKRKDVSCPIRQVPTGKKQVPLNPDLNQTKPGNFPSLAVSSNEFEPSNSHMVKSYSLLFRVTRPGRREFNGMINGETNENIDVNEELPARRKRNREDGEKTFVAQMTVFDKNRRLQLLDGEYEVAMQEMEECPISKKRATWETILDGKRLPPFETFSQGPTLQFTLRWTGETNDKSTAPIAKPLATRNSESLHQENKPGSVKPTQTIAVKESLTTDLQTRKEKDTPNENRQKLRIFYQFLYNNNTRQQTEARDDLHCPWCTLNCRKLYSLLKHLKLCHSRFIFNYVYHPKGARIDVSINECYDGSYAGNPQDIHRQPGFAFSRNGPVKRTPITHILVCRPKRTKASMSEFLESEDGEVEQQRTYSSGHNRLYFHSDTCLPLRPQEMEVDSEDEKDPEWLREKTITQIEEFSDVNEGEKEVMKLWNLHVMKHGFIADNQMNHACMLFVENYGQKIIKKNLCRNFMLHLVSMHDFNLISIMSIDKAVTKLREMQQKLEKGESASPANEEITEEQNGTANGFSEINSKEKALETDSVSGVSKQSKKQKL
# Sequence of Y641F mutant PRC2 enzyme (EZH2 Y641F) (Q09028 whole entry partner): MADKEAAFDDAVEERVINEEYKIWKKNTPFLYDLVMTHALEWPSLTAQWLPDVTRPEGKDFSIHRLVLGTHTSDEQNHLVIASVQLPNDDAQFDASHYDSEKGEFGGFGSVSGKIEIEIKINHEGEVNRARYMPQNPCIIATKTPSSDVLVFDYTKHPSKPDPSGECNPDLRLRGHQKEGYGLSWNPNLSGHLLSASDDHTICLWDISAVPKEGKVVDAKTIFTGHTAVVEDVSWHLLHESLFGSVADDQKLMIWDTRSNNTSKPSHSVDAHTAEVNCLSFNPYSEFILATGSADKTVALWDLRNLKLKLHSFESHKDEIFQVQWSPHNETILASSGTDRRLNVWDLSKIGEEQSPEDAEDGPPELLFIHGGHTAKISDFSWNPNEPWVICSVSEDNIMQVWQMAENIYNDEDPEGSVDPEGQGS
# Description: as §1, §2, §3, §4, §5
# Sequence of wild-type PRC2 enzyme (WT EZH2) (Q15910 whole entry): as the sequence (Q15910 whole entry Y641F) above, with F641Y counted along it
# Sequence of wild-type PRC2 enzyme (WT EZH2) (O75530 whole entry partner): as the sequence (O75530 whole entry partner) above
# Sequence of wild-type PRC2 enzyme (WT EZH2) (Q15022 whole entry partner): as the sequence (Q15022 whole entry partner) above
# Sequence of wild-type PRC2 enzyme (WT EZH2) (Q09028 whole entry partner): as the sequence (Q09028 whole entry partner) above
Compound,pIC50 [1],pIC50 [2]
"COc1nn(C)c(C)c1CNC(=O)c1c(C)n(C(C)C2CCOCC2)c2ccccc12 (stereo not shown) [Compound 1, N-((3-methoxy-1,5-dimethyl-1H-pyrazol-4-yl)methyl)-2-methyl-1-(1-(tetrahydro-2H-pyran-4-yl)ethyl)-1H-indole-3-carboxamide]",< 4.30,4.55
"Cc1c(CNC(=O)c2c(C)n(C(C)C3CCOCC3)c3ccccc23)c(=O)[nH]n1C (stereo not shown) [Compound 2, N-((1,5-dimethyl-3-oxo-2,3-dihydro-1H-pyrazol-4-yl)methyl)-2-methyl-1-(1-(tetrahydro-2H-pyran-4-yl)ethyl)-1H-indole-3-carboxamide]",< 4.30,< 4.30
"CCC(C)n1cc(C)c2c(C(=O)NCc3c(OC)nn(C)c3C)cc(-c3ccc(N4CCNCC4)nc3)cc21 (stereo not shown) [Compound 3, 1-(sec-butyl)-N-((3-methoxy-1,5-dimethyl-1H-pyrazol-4-yl)methyl)-3-methyl-6-(6-(piperazin-1-yl)pyridin-3-yl)-1H-indole-4-carboxamide]",5.36,6.26
"CCC(C)n1cc(C)c2c(C(=O)NCc3c(C)n(C)[nH]c3=O)cc(-c3ccc(N4CCNCC4)nc3)cc21 (stereo not shown) [Compound 4, 1-(sec-butyl)-N-((1,5-dimethyl-3-oxo-2,3-dihydro-1H-pyrazol-4-yl)methyl)-3-methyl-6-(6-(piperazin-1-yl)pyridin-3-yl)-1H-indole-4-carboxamide]",5.25,5.96
"CCC(C)n1cc(C)c2c(C(=O)NCc3c(OC)nn(CC)c3C)cc(-c3ccc(N4CCNCC4)nc3)cc21 (stereo not shown) [Compound 5, 1-(sec-butyl)-N-((1-ethyl-3-methoxy-5-methyl-1H-pyrazol-4-yl)methyl)-3-methyl-6-(6-(piperazin-1-yl)pyridin-3-yl)-1H-indole-4-carboxamide]",4.66,5.70
